What was measured:
[1] = Highest frequency of moderate liver toxicity observed during clinical trials, expressed as a percentage. [column '% BIOL' in source]; details: human
[2] = Highest frequency of acute liver toxicity observed during clinical trials, expressed as a percentage. [column '% AIGUE' in source]; details: human
[3] = Times to onset, minimal and maximal, observed in the indexed observations. [column 'DELAI' in source]; details: human
[4] = human, serum
[5] = human, serum; remark: listed apart in the source
[6] = human
[7] = human; remark: listed apart in the source
[8] = human; remark: listed apart in the source
[9] = human, serum, 4383 h
[10] = human; remark: listed apart in the source
[11] = human; remark: listed apart in the source
[12] = human; remark: listed apart in the source
[13] = human; remark: listed apart in the source
[14] = human; remark: listed apart in the source
[15] = human; remark: listed apart in the source
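For Hepatotoxicity (association with vascular disease) in this document: count of indexed literature references reporting vascular liver injury in humans, e.g. peliosis hepatitis, hepatic veno-occlusive disease or Budd-Chiari syndrome.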
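For Hepatotoxicity (benign tumour) in this document: value is a count of indexed literature references citing a benign tumour confirmed by histopathology.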
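For Hepatotoxicity (choleostasis) in this document: human cholestatic liver injury, shown by histopathology or by peak ALT or AST elevation over alkaline phosphatase ratio below 2, value counts indexed literature reports.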
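For Hepatotoxicity (chronic liver disease) in this document: chronic liver injury confirmed by histopathology or persistently raised serum aminotransferase activity beyond 6 months, value given as the count of indexed literature references.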
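For Hepatotoxicity (cirrhosis) in this document: value is a count of indexed literature references reporting cirrhosis confirmed by histopathology.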
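For Hepatotoxicity (cytolytic) in this document: human cytolytic liver injury, shown by histopathology or by a ratio above 5 of peak ALT or AST elevation to alkaline phosphatase elevation, value counts indexed references.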
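For Hepatotoxicity (granulomatous hepatitis) in this document: value is a count of indexed literature references reporting granulomatous liver disease confirmed by histopathology.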
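For Hepatotoxicity (malignant tumour) in this document: malignant tumour confirmed by histopathology, value gives the count of indexed literature references reporting it.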
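For Hepatotoxicity (severe hepatitis) in this document: human clinical data: severe hepatitis, meaning potentially life-threatening liver failure or clinically observed cases, the value counts how many indexed literature references report it.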
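For Hepatotoxicity (steatosis) in this document: steatosis confirmed by histopathology, value is the count of indexed references.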

Compound	Hepatotoxicity (moderate) [1] [%]	Hepatotoxicity (acute) [2] [%]	Hepatotoxicity (time to onset) [3]	Hepatotoxicity (moderate) [4]	Hepatotoxicity (acute) [5]	Hepatotoxicity (cytolytic) [6]	Hepatotoxicity (choleostasis) [7]	Hepatotoxicity (severe hepatitis) [8]	Hepatotoxicity (chronic liver disease) [9]	Hepatotoxicity (cirrhosis) [10]	Hepatotoxicity (granulomatous hepatitis) [11]	Hepatotoxicity (association with vascular disease) [12]	Hepatotoxicity (steatosis) [13]	Hepatotoxicity (malignant tumour) [14]	Hepatotoxicity (benign tumour) [15]	Hepatotoxicity (moderate) ([1]; Liver) [%]	Hepatotoxicity (acute) ([2]; Liver) [%]	Hepatotoxicity (severe hepatitis) ([8]; Liver)
CC[C@H]1OC(=O)[C@H](C)[C@@H](O[C@H]2C[C@@](C)(OC)[C@@H](O)[C@H](C)O2)[C@H](C)[C@@H](O[C@@H]2O[C@H](C)C[C@H](N(C)C)[C@H]2O)[C@](C)(O)C[C@@H](C)/C(=N\OCOCCOC)[C@H](C)[C@@H](O)[C@]1(C)O [ROXITHROMYCIN]	22.6	0	4 days - 10 months	38	10	7	6	2	0	0	0	0	0	0	0	–	–	–
O=C(O)Cc1sc(-c2ccccc2)nc1-c1ccc(Cl)cc1 [FENTIAZAC]	35	6.1	4 months - 5 months	3	2	1	0	0	0	0	0	0	0	0	0	–	–	–
CCCCNc1cc(C(=O)O)cc(S(N)(=O)=O)c1Oc1ccccc1 [BUMETANIDE]	–	–	2 weeks - 6 months	3	0	0	0	–	0	0	0	0	0	0	0	1.1	0	0
[3-(8,8-Diethyl-2-aza-8-germa-spiro[4.5]dec-2-yl)-propyl]-dimethyl-amine	27	6.5	8 weeks	6	2	0	0	0	0	0	0	0	0	0	0	–	–	–
CN[C@@H]1[C@H](O)[C@H](NC)[C@H]2O[C@@]3(O)C(=O)C[C@@H](C)O[C@H]3O[C@@H]2[C@H]1O [SPECTINOMYCIN]	0	0	3 days	1	1	0	1	0	0	0	0	0	0	0	0	–	–	–
CN1CCN(C2=Nc3ccccc3Oc3ccc(Cl)cc32)CC1 [LOXAPINE]	0	0	1 week - 3 weeks	2	1	0	1	0	0	0	0	0	0	0	0	–	–	–
Cc1c(-c2ccccc2)oc2c(C(=O)OCCN3CCCCC3)cccc2c1=O [FLAVOXATE]	0	0	2.5 months	0	1	1	0	0	0	0	0	0	0	0	0	–	–	–
Cc1cccc(N2CC(CO)OC2=O)c1 (stereo not given) [TOLOXATONE]	0	0	15 days - 10 months	0	2	2	1	1	0	0	0	0	0	0	0	–	–	–
NC(=O)CCC/N=C(\c1ccc(Cl)cc1)c1cc(F)ccc1O [PROGABIDE]	30	3.4	2 weeks - 6 months	6	6	4	0	4	0	0	0	0	0	0	0	–	–	–
Fc1ccccc1C1=NCC(=S)N(CC(F)(F)F)c2ccc(Cl)cc21 [QUAZEPAM]	0	0	4 weeks	1	0	0	0	0	0	0	0	0	0	0	0	–	–	–
CCN(CC)C(=O)/C(C#N)=C/c1cc(O)c(O)c([N+](=O)[O-])c1 [ENTACAPONE]	0	0	2 weeks - 6 weeks	1	2	0	2	0	0	0	0	0	0	0	0	–	–	–
CCC1=C[C@@H]2CN(C1)Cc1c([nH]c3ccccc13)[C@@](C(=O)OC)(c1cc3c(cc1OC)N(C)[C@H]1[C@@](O)(C(=O)OC)[C@H](OC(C)=O)[C@]4(CC)C=CCN5CC[C@]31[C@@H]54)C2 [VINORELBINE]	24.1	6	2 days - 10 days	6	3	2	0	1	0	0	0	0	0	0	0	–	–	–
CCN1CCC[C@H]1CNC(=O)c1c(O)c(Cl)cc(Cl)c1OC [RACLOPRIDE]	2.2	0	1 week - 2 weeks	1	0	0	0	0	0	0	0	0	0	0	0	–	–	–
CO/N=C(\C(=O)N[C@@H]1C(=O)N2C(C(=O)O)=C(COC(C)=O)CS[C@H]12)c1csc(N)n1 [CEFOTAXIME]	33.3	3.3	3 days - 2 weeks	33	4	1	2	0	0	0	0	0	0	0	0	–	–	–
